Converted amounts (≈) assume the structure as drawn.
Assays:
Assay in all cases: ≥ marks a high value that may be exact or a test limit, other limits are often not marked, values filed in µg/mL are converted to µM
[1] = tested on: Staphylococcus aureus ATCC 6538
[2] = tested on: Bacillus subtilis ATCC 6633
[3] = tested on: Candida albicans ATCC 10231
[4] = tested on: Escherichia coli ATCC 25922
[5] = tested on: Staphylococcus aureus ATCC 25923
[6] = tested on: Pseudomonas aeruginosa ATCC 9027
[7] = tested on: Klebsiella pneumoniae ATCC 700603
[8] = tested on: Staphylococcus epidermidis
[9] = tested on: Acinetobacter baumannii
[10] = tested on: Candida albicans ATCC 90028
[11] = tested on: Staphylococcus aureus
[12] = tested on: Candida albicans ATCC 2002
[13] = tested on: Bacillus subtilis
[14] = tested on: Candida albicans
[15] = tested on: Escherichia coli

| MIC [4] [µM] | MIC [5] [µM] | Compound | MIC [1] [µM] | MIC [6] [µM] | further results |
| --- | --- | --- | --- | --- | --- |
| – | – | CC(C)C[C@H](NC(=O)CNC(=O)[C@@H](NC(=O)[C@@H]1CCCN1C(=O)[C@H](CC(C)C)NC(=O)CNC(=O)[C@H](CC(N)=O)NC(=O)[C@H](CC(N)=O)NC(=O)[C@H](Cc1ccccc1)NC(=O)[C@@H](NC(=O)[C@H](CCCN=C(N)N)NC(=O)[C@H](CS)NC(=O)[C@H](CCCN=C(N)N)NC(=O)[C@H](Cc1cnc[nH]1)NC(=O)[C@H](CCCCN)NC(=O)[C@H](CCCCN)NC(=O)[C@H](CCCN=C(N)N)NC(=O)[C@@H](N)CCCCN)C(C)C)[C@@H](C)O)C(=O)N[C@@H](Cc1ccc(O)cc1)C(=O)N[C@@H](CCCN=C(N)N)C(=O)N[C@@H](Cc1c[nH]c2ccccc12)C(=O)N[C@@H](CS)C(N)=O [KRKKHRCRVFNNGLPTGLYRWC] | 4.1 (≈ 11.2 µg/mL) | – | – |
| > 65.8 | > 65.8 | CC(C)C[C@H](NC(=O)[C@@H]1CCCN1C(=O)[C@H](CCCCN)NC(=O)[C@@H]1CCCN1C(=O)[C@H](Cc1ccc(O)cc1)NC(=O)[C@H](CCCCN)NC(=O)[C@H](Cc1c[nH]c2ccccc12)NC(=O)[C@H](CCCN=C(N)N)NC(=O)[C@@H](N)Cc1ccccc1)C(=O)N[C@@H](CCCCN)C(=O)N[C@@H](CCCN=C(N)N)C(=O)O [FRWKYPKPLKR] | – | – | MIC [2]: ≥ 65.8 µM; MIC [3]: > 65.8 µM |
| – | – | CC(C)C[C@H](NC(=O)[C@H](C)NC(=O)[C@H](CC(C)C)NC(=O)[C@H](CCCCN)NC(=O)[C@H](C)NC(=O)[C@H](CC(C)C)NC(=O)[C@H](CCCCN)NC(=O)[C@H](CCCCN)NC(=O)[C@H](CC(C)C)NC(=O)[C@H](CCCCN)NC(=O)[C@H](CCCCN)NC(=O)[C@H](C)NC(=O)[C@H](CC(C)C)NC(=O)[C@H](CCCCN)NC(=O)[C@H](CCCCN)NC(=O)[C@H](C)NC(=O)[C@@H](N)Cc1ccccc1)C(=O)N[C@@H](C)C(=O)N[C@@H](CCCCN)C(N)=O [FAKKLAKKLKKLAKLALAK] | 4.74 (≈ 10 µg/mL) | 4.74 (≈ 10 µg/mL) | – |
| 6.53 (≈ 16 µg/mL) | – | CC[C@H](C)[C@H](NC(=O)[C@@H](NC(=O)[C@@H]1CCCN1C(=O)[C@@H](NC(=O)[C@@H]1CCCN1C(=O)[C@H](CCCCN)NC(=O)[C@H](CCCCN)NC(=O)[C@H](CO)NC(=O)CN)C(C)C)[C@@H](C)CC)C(=O)N[C@@H](Cc1ccc(O)cc1)C(=O)N[C@H]1CSSC[C@@H](C(=O)N[C@@H](CCC(N)=O)C(=O)N[C@@H](CCCN=C(N)N)C(=O)N[C@@H](CCSC)C(=O)O)NC(=O)[C@H](CCCCN)NC(=O)[C@H](C)NC(=O)[C@H]([C@@H](C)O)NC(=O)[C@H](CCCN=C(N)N)NC(=O)[C@H](CCCN=C(N)N)NC(=O)[C@H](CC(N)=O)NC1=O [GSKKPVPIIYCNRRTAKCQRM] | – | – | MIC [7]: 6.53 µM (≈ 16 µg/mL) |
| – | – | CC[C@H](C)[C@H](NC(=O)[C@H](CC(=O)O)NC(=O)[C@@H](NC(=O)[C@H](CCCCN)NC(=O)[C@H](Cc1ccccc1)NC(=O)[C@@H]1CCCN1)[C@@H](C)CC)C(=O)N[C@@H](Cc1cnc[nH]1)C(=O)N[C@@H](CC(C)C)C(=O)NCC(=O)NCC(=O)N[C@@H](Cc1ccc(O)cc1)C(N)=O [PFKIDIHLGGY] | – | – | MIC [8]: 23.8 µM (≈ 30 µg/mL) |
| 5 (≈ 14.2 µg/mL) | 5 (≈ 14.2 µg/mL) | CC[C@H](C)[C@H](NC(=O)[C@H](CCCCN)NC(=O)[C@H](Cc1ccccc1)NC(=O)[C@H](C)NC(=O)[C@H](CCCCN)NC(=O)CNC(=O)[C@H](CC(C)C)NC(=O)[C@H](CC(C)C)NC(=O)[C@H](CO)NC(=O)CNC(=O)[C@H](CC(C)C)NC(=O)CN)C(=O)NCC(=O)N[C@@H](CC(C)C)C(=O)N[C@@H](CCCCN)C(=O)N[C@H](C(=O)N[C@H](C(=O)NCC(=O)N[C@@H](CCCCN)C(=O)N[C@@H](CCSC)C(=O)N[C@@H](CCSC)C(=O)NCC(=O)NCC(=O)N[C@@H](C)C(=O)N1CCC[C@H]1C(=O)N[C@@H](CCCNC(=N)N)C(=O)N[C@@H](CCC(=O)O)C(=O)N[C@@H](CCC(N)=O)C(=O)O)C(C)C)[C@@H](C)O [GLGSLLGKAFKIGLKTVGKMMGGAPREQ] | – | – | MIC [9]: 5.66 µM (≈ 16.1 µg/mL); MIC [10]: 25 µM (≈ 71.1 µg/mL); MIC [11]: 5.66 µM (≈ 16.1 µg/mL) |
| – | – | CC[C@H](C)[C@H](NC(=O)[C@@H](NC(=O)[C@@H](NC(=O)[C@@H]1CCCN1C(=O)[C@H](Cc1c[nH]c2ccccc12)NC(=O)[C@H](Cc1ccccc1)NC(=O)[C@H](CCCN=C(N)N)NC(=O)[C@H](CCCCN)NC(=O)[C@@H](NC(=O)[C@@H](N)CCCN=C(N)N)[C@@H](C)CC)C(C)C)C(C)C)C(=O)N[C@@H](CCCN=C(N)N)C(=O)N[C@H](C(=O)N[C@H](C(=O)N[C@H](C(=O)N[C@@H](C)C(=O)NCC(=O)N[C@@H](Cc1ccc(O)cc1)C(=O)N[C@@H](CC(N)=O)C(=O)O)C(C)C)C(C)C)[C@@H](C)O [RIKRFWPVVIRTVVAGYN] | – | – | MIC [12]: ≥ 69 µM |
| > 64 | 32 (≈ 47.7 µg/mL) | CC[C@H](C)[C@H](NC(=O)[C@@H](NC(=O)[C@H](CCCCN)NC(=O)[C@H](CCCCN)NC(=O)[C@H](CC(C)C)NC(=O)CN)C(C)C)C(=O)N[C@@H](CCCCN)C(=O)N[C@@H](CC(C)C)C(=O)N[C@@H](CC(C)C)C(=O)N[C@@H](CCCN=C(N)N)C(=O)N1CCC[C@H]1C(=O)N[C@@H](CC(C)C)C(=O)N[C@@H](CC(C)C)C(=O)O [GLKKVIKLLRPLL] | – | 16 (≈ 23.9 µg/mL) | MIC [9]: ≥ 32 µM; MIC [7]: > 64 µM |
| – | – | CC(C)C[C@H](NC(=O)[C@H](C)NC(=O)[C@H](CCCCN)NC(=O)[C@H](CCCCN)NC(=O)[C@H](C)NC(=O)[C@H](CC(C)C)NC(=O)[C@H](CCCCN)NC(=O)[C@H](CCCCN)NC(=O)[C@H](CC(C)C)NC(=O)[C@H](CCCCN)NC(=O)[C@H](CCCCN)NC(=O)[C@H](C)NC(=O)[C@H](CC(C)C)NC(=O)[C@H](CCCCN)NC(=O)[C@H](CCCCN)NC(=O)[C@H](CC(C)C)NC(=O)[C@H](C)NC(=O)[C@H](CCCCN)NC(=O)[C@H](CC(C)C)NC(=O)[C@H](C)NC(=O)[C@H](CC(C)C)NC(=O)[C@H](C)NC(=O)[C@@H](N)Cc1ccccc1)C(N)=O [FALALKALKKLAKKLKKLAKKAL] | 3.94 (≈ 10 µg/mL) | 1.97 (≈ 5 µg/mL) | – |
| 61.1 (≈ 75 µg/mL) | > 81.5 | CC(C)[C@H](NC(=O)[C@H](CCCCN)NC(=O)[C@@H](NC(=O)[C@H](CCC(N)=O)NC(=O)[C@H](CCCCN)NC(=O)[C@H](Cc1c[nH]c2ccccc12)NC(=O)[C@@H](N)CCCN=C(N)N)C(C)C)C(=O)N[C@@H](CCCCN)C(=O)N[C@@H](CCCN=C(N)N)C(=O)O [RWKQVKVKR] | – | – | MIC [2]: ≥ 61.1 µM; MIC [3]: 30.5 µM (≈ 37.5 µg/mL) |
| – | – | CC[C@H](C)[C@H](NC(=O)CNC(=O)[C@H](CO)NC(=O)[C@H](CC(C)C)NC(=O)[C@H](CC(C)C)NC(=O)CN)C(=O)N[C@@H](CC(C)C)C(=O)NCC(=O)N[C@@H](C)C(=O)NCC(=O)N[C@@H](CCCCN)C(=O)N[C@@H](Cc1cnc[nH]1)C(=O)N[C@H](C(=O)N[C@H](C(=O)N[C@H]1CSSC[C@@H](C(=O)O)NC(=O)[C@H](CC(C)C)NC(=O)CNC(=O)[C@H](CO)NC(=O)[C@H](CC(C)C)NC(=O)CNC1=O)[C@@H](C)CC)[C@@H](C)CC [GLLSGILGAGKHIICGLSGLC] | – | – | MIC [13]: ≥ 50.4 µM; MIC [14]: 0.555 µM (≈ 1.1 µg/mL); MIC [15]: > 50.4 µM; MIC [11]: > 50.4 µM |
| – | – | CC[C@H](C)[C@H](NC(=O)[C@H](CCCCN)NC(=O)[C@H](CCCCN)NC(=O)[C@H](C)NC(=O)[C@H](CC(C)C)NC(=O)[C@H](CCCCN)NC(=O)[C@H](C)NC(=O)[C@H](CC(C)C)NC(=O)[C@H](CC(C)C)NC(=O)[C@H](CCCCN)NC(=O)[C@H](C)NC(=O)[C@@H](N)Cc1ccccc1)C(=O)N[C@@H](CC(C)C)C(N)=O [FAKLLAKLAKKIL] | 6.86 (≈ 9.99 µg/mL) | 68.6 (≈ 99.9 µg/mL) | – |

Reference: DBAASP
